# How the values were obtained:
# PCSK9 protein = assay: Influence of test compound on PCSK9 protein production amount in HepG2 cells (ELISA); format: cell-based, human; conditions: about 24 hours treatment, intracellular PCSK9 protein by ELISA, read-out: IC50 (50% PCSK9 production-suppressing concentration)
# Experimental: A test compound was added to culture supernatant of cells of the human liver cancer-derived cell strain, HepG2 cells, and intracellular amount of the PCSK9 protein was measured by the enzyme-linked immunosorbent assay (ELISA) after 24 hours. Specifically, the HepG2 cells were inoculated into wells of a 96-well microplate at a density of 5 to 7.5×10^4 cells/well, and the culture supernatant was exchanged with the MEM medium containing 10% lipoprotein deficient serum (LPDS) on the next day. After the cells were further cultured for one day, the culture supernatant was exchanged with the 10% LPDS-containing MEM medium containing a test compound, and the cells were treated with the compound for about 24 hours. The medium for treating the cells was prepared by dissolving the test compound in dimethyl sulfoxide (DMSO), and adding the resulting solution to the 10% LPDS-containing medium. The medium for treating cells for control was prepared by adding DMSO to the 10% LPDS-containing medium at the same final concentration. After completion of the treatment of the cells, a solubilization buffer (1% Nonidet P-40 in phosphate buffered saline) was added to the cells to extract proteins, and they were used as a sample.
# The PCSK9 protein concentration and the total protein concentration in the sample were measured by using Human PCSK9 ELISA Kit produced by R&D Systems (Cat. No. DPC900), and BCA Protein Assay Reagent. Kit produced by Thermo Scientific (Cat. No. 23227) according to the protocols described in the attached manuals, respectively. The PCSK9 protein concentration in each sample was calculated as a concentration per unit mass of proteins. Then, by using PCSK9 production suppressing ratios at various concentrations obtained in accordance with the equation mentioned below, 50% PCSK9 production-suppressing concentration (IC50) of each compound was calculated with a linear regression equation.
# Equation: PCSK9 production-suppressing ratio (%)=[(Average PCSK9 protein concentration in control group−Average PCSK9 protein concentration in test compound-treated group)/Average PCSK9 protein concentration in control group]×100
# [1] = system: dietary hyperlipidemia hamsters; assay: Efficacy test in dietary hyperlipidemia hamsters (LDL cholesterol decreasing ratio); format: in vivo, Slc:Syrian male hamsters; conditions: oral once a day for seven days, high fat diet hamsters
# Experimental: As test animals, the Slc:Syrian male hamsters were used. In order to create dietary hyperlipidemia models, the hamsters were fed ad libitum with a high fat diet (mixed diet of 0.5% cholesterol and 10% palm oil) for a period from two weeks before the start of the administration of the test compound to the end of the experiment. Blood was collected one day before the day of the start of the administration, and the total blood cholesterol concentration was measured by the direct method using an automatic analyzer. On the basis of this total blood cholesterol concentration, the animals were divided into groups. From the next day, the test compound was orally administered once a day for seven days, and the animals were dissected on the day following the day of the final administration. The LDL-cholesterol concentration in the collected blood was measured by the direct method using an automatic analyzer, and LDL cholesterol decreasing ratio was calculated in accordance with the following equation for each group.
# Equation: LDL cholesterol decreasing ratio (%)=[(Average LDL-cholesterol concentration of control group−Average LDL-cholesterol concentration of test compound-administered group)/Average LDL-cholesterol concentration of control group]×100
SMILES,IC50 (PCSK9 protein) [nM],further results
"COc1ccc2cc3[n+](cc2c1OC)CCc1cc2c(cc1-3)OCO2 [Berberine chloride, reference compound]",> 10000,–
"FC(F)(F)c1ccc(-c2nc3ccc(Cl)c(C(F)(F)F)c3o2)cc1 [Example 1, 6-Chloro-7-trifluoromethyl-2-(4-trifluoromethylphenyl)benzoxazole]",0.802,–
"Fc1c(C(F)(F)F)ccc2nc(-c3ccc(C(F)(F)F)cc3)oc12 [Example 3, 7-Fluoro-6-trifluoromethyl-2-(4-trifluoromethylphenyl)benzoxazole]",8.19,–
"FC(F)(F)c1ccc(-c2nc3c(Cl)c(C(F)(F)F)ccc3o2)cc1 [Example 4, 4-Chloro-5-trifluoromethyl-2-(4-trifluoromethylphenyl)benzoxazole]",0.426,–
"FC(F)(F)c1ccc(-c2nc3ccc(I)c(Cl)c3o2)cc1 [Example 6, 7-Chloro-6-iodo-2-(4-trifluoromethylphenyl)benzoxazole]",2.5,LDL cholesterol decreasing ratio (%) ([1]; dose 5 mg/kg): 41.8%
"FC(F)(F)c1ccc(-c2nc3ccc(C(F)(F)F)c(Cl)c3o2)cc1 [Example 7, 7-Chloro-6-trifluoromethyl-2-(4-trifluoromethylphenyl)benzoxazole]",0.036,LDL cholesterol decreasing ratio (%) ([1]; dose 0.01 mg/kg): 45.5%; LDL cholesterol decreasing ratio (%) ([1]; dose 0.04 mg/kg): 56.9%
"FC(F)(F)c1ccc(-c2nc3c(C(F)(F)F)ccc(Cl)c3o2)cc1 [Example 8, 7-Chloro-4-trifluoromethyl-2-(4-trifluoromethylphenyl)benzoxazole]",0.153,–
"N#Cc1ccc2nc(-c3ccc(C(F)(F)F)cc3)oc2c1Cl [Example 9, 7-Chloro-6-cyano-2-(4-trifluoromethylphenyl)benzoxazole]",0.0182,–
"N#Cc1cc(Cl)c2nc(-c3ccc(C(F)(F)F)cc3)oc2c1 [Example 11, 4-Chloro-6-cyano-2-(4-trifluoromethylphenyl)benzoxazole]",1.34,–
"Fc1c(Cl)cc2nc(-c3ccc(C(F)(F)F)cc3)oc2c1Cl [Example 12, 5,7-Dichloro-6-fluoro-2-(4-trifluoromethylphenyl)benzoxazole]",2.94,–
"FC(F)(F)c1ccc(-c2nc3ccc(C4CC4)c(C(F)(F)F)c3o2)cc1 [Example 14, 6-Cyclopropyl-7-trifluoromethyl-2-(4-trifluoromethylphenyl)benzoxazole]",4.54,–
"CC(=O)Nc1ccc2nc(-c3ccc(C(F)(F)F)cc3)oc2c1C(F)(F)F [Example 16, 6-Acetamido-7-trifluoromethyl-2-(4-trifluoromethylphenyl)benzoxazole]",2.08,–
"O=C(O)CCC(=O)Nc1ccc2nc(-c3ccc(C(F)(F)F)cc3)oc2c1C(F)(F)F [Example 18, 6-(3-Carbonylpropanamido)-7-trifluoromethyl-2-(4-trifluoromethylphenyl)benzoxazole]",16.3,–
"N#Cc1ccc2nc(-c3ccc(C(F)(F)F)cc3)oc2c1C(F)(F)F [Example 19, 6-Cyano-7-trifluoromethyl-2-(4-trifluoromethylphenyl)benzoxazole]",0.188,LDL cholesterol decreasing ratio (%) ([1]; dose 1 mg/kg): 35.2%
"FC(F)(F)c1ccc(-c2nc3ccc(NC4CC4)c(C(F)(F)F)c3o2)cc1 [Example 20, 6-(Cyclopropylamino)-7-trifluoromethyl-2-(4-trifluoromethylphenyl)benzoxazole]",3.95,–
"OCCNc1ccc2nc(-c3ccc(C(F)(F)F)cc3)oc2c1C(F)(F)F [Example 21, 6-(2-Hydroxyethylamino)-7-trifluoromethyl-2-(4-trifluoromethylphenyl)benzoxazole]",5.85,–
"COc1cc(C#N)c(Cl)c2oc(-c3ccc(C(F)(F)F)cc3)nc12 [Example 22, 7-Chloro-6-cyano-4-methoxy-2-(4-trifluoromenthylphenyl)benzoxazole]",99,–
"CCc1nc2c(ccc3oc(-c4ccc(C(F)(F)F)cc4)nc32)o1 [Example 23, 2-Ethyl-7(4-trifluoromethylphenyl)benzo[2,1-d:3,4-d′]bisoxazole]",52.3,–
"FC(F)(F)c1ccc(-c2nc3ccc(C(F)(F)F)cc3o2)cc1 [Example 24, 6-(Trifluoromethyl)-2-[4-(trifluoromethyl)phenyl]benzoxazole]",21.4,LDL cholesterol decreasing ratio (%) ([1]; dose 1 mg/kg): 32.6%

SMILES,IC50 (PCSK9 protein) [nM],further results
"FC(F)(F)c1ccc(-c2nc3cccc(C(F)(F)F)c3o2)cc1 [Example 25, 7-(Trifluoromethyl)-2-[4-(trifluoromethyl)phenyl]benzoxazole]",24.5,–
"FC(F)(F)c1ccc(-c2nc3cc(Cl)c(C(F)(F)F)cc3o2)cc1 [Example 27, 5-Chloro-6-(trifluoromethyl)-2-[4-(trifluoromethyl)phenyl]benzoxazole]",12.3,–
"FC(F)(F)c1ccc(-c2nc3cc(C(F)(F)F)cc(Cl)c3o2)cc1 [Example 28, 7-Chloro-5-(trifluoromethyl)-2-[4-(trifluoromethyl)phenyl]benzoxazole]",1.35,LDL cholesterol decreasing ratio (%) ([1]; dose 0.2 mg/kg): 63.6%
"N#Cc1ccc2nc(-c3ccc(C(F)(F)F)cc3)oc2c1 [Example 29, 6-Cyano-2-[4-(trifluoromethyl)phenyl]benzoxazole]",27,–
"FC(F)(F)c1ccc(-c2nc3c(ccc4cc[nH]c43)o2)cc1 [Example 31, 2-(4-Trifluoromethylphenyl)-8H-pyrrolo[2,3-e]benzoxazole]",29.7,–
"Nc1ccc(Br)c2oc(-c3ccc(C(F)(F)F)cc3)nc12 [Example 33, 4-Amino-7-bromo-2-(4-trifluoromethylphenyl)benzoxazole]",4.96,–
"Nc1c(Cl)cc(Cl)c2oc(-c3ccc(C(F)(F)F)cc3)nc12 [Example 34, 4-Amino-5,7-dichloro-2-(4-trifluoromethylphenyl)benzoxazole]",20.2,–
"Nc1c(Cl)ccc2oc(-c3ccc(C(F)(F)F)cc3)nc12 [Example 35A, 4-Amino-5-chloro-2-(4-trifluoromethylphenyl)benzoxazole]",–,melting point: 132 to 134 °C
"Nc1ccc(Cl)c2oc(-c3ccc(C(F)(F)F)cc3)nc12 [Example 35B, 4-Amino-7-chloro-2-(4-trifluoromethylphenyl)benzoxazole]",1.24,melting point: 149 to 150 °C
"N#Cc1cc(Cl)c2oc(-c3ccc(C(F)(F)F)cc3)nc2c1N [Example 36, 4-Amino-7-chloro-5-cyano-2-(4-trifluoromethylphenyl)benzoxazole]",5.17,–
N#Cc1ccc(N)c2nc(-c3ccc(C(F)(F)F)cc3)oc12 [Example 38],27.3,–
"CN(C)c1nc2c(ccc3oc(-c4ccc(C(F)(F)F)cc4)nc32)s1 [Example 40, 7-Dimethylamino-2-(4-trifluoromethylphenyl)thiazolo[4,5-e]benzoxazole]",3.97,–
"NCc1cccc2oc(-c3ccc(C(F)(F)F)cc3)nc12 [Example 41, 4-Aminomethyl-2-(4-trifluoromethylphenyl)benzoxazole]",19.2,–
"[O-][n+]1ccc2c(ccc3oc(-c4ccc(C(F)(F)F)cc4)nc32)c1 [Example 43, 2-[4-(Trifluoromethyl)phenyl]oxazolo[4,5-f]isoquinoline 7-oxide]",25.6,–
"Clc1ccc2nc(-c3nc4c(Cl)cccc4o3)sc2c1 [Example 44, 4-Chloro-2-(6-chloro-benzothiazol-2-yl)benzoxazole]",13.9,–
"Nc1c(-c2ccc(C(F)(F)F)cc2)[nH]c2c(Cl)c(Cl)ccc12 [Example 45, 3-Amino-6,7-dichloro-2-(4-trifluoromethylphenyl)indole]",2.68,–
"CCN(CC)c1nc2c(ccc3cc(-c4ccc(C(F)(F)F)cc4)[nH]c32)o1 [Example 47, 2-Diethylamino-7-(4-trifluoromenthylphenyl)-8H-pyrrolo[2,3-e]benzoxazole]",45.4,–
"CC(C)OC(=O)C(C)(C)Oc1ccc(C(=O)c2ccc(Cl)cc2)cc1 [Phenofibrate, reference compound]",–,LDL cholesterol decreasing ratio (%) ([1]; dose 50 mg/kg): 25.7%

# From patent publication US20170298081A1, “CONDENSED HETEROCYCLIC COMPOUND” (KASUMA PARTNERS INC., priority 2014, published 2017)
